Experimental findings from US5482967A, “Condensed heterocyclic compounds, their production and use” (Takeda Chemical Industries, Ltd., priority 1992, dated 1996) are described below.

The structures appear in SMILES notation.

Chain of substance P receptor (P25103 whole entry): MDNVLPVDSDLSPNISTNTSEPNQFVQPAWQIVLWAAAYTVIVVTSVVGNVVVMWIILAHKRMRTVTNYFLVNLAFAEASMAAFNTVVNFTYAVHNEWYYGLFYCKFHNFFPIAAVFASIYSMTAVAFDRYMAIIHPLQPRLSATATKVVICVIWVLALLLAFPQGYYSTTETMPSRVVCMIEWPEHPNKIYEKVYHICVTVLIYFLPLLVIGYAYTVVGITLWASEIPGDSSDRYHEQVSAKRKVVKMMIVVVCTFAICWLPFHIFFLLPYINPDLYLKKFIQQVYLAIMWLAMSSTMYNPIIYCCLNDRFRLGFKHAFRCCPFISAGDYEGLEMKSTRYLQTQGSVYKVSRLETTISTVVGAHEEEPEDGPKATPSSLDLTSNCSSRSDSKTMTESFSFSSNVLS

One test deals with substance P receptor (Homo sapiens, UniProt P25103). As to the kind of experiment: Radioligand receptor binding inhibitory assay using receptor from human lymphoblast cells (IM-9), 125I-BHSP. The settings on record: IM-9 receptor, 25° C., 30 minutes. In short, it runs like this:
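IM-9 lymphoblast membranes (suspended at 1.5 mg/ml protein) were incubated with 125I-BHSP (0.46 KBq) at 25 °C for 30 min in 50 mM Tris-HCl pH 7.4 with BSA, protease inhibitors and 3 mM MnCl2. Nonspecific binding was defined with 2×10^-6 M substance P. Bound radioactivity was collected on PEI-treated GF/B filters and gamma-counted.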
Usually IC50 stands for the concentration that gives 50% inhibition. Low values mean greater potency, high ones weaker potency. `CN(Cc1cc(C(F)(F)F)cc(C(F)(F)F)c1)C(=O)c1oc(=O)c2ccccc2c1-c1ccccc1` [Example 243, N-[3,5-Bis(trifluoromethyl)benzyl]-N-methyl-1-oxo-4-phenyl-1H-2-benzopyran-3-carboxamide]: the half-inhibitory concentration (IC50) was found to be 0.9 nM.

On to `CN(Cc1cc(C(F)(F)F)cc(C(F)(F)F)c1)C(=O)c1cnc2ccccc2c1-c1ccccc1` [Example 265, N-[3,5-Bis(trifluoromethyl)benzyl]-N-methyl-4-phenyl-3-quinolinecarboxamide], for which the concentration for half-maximal inhibition (IC50) amounted to 0.52 nM.

For the molecule `CN(Cc1cc(C(F)(F)F)cc(C(F)(F)F)c1)C(=O)c1c(-c2ccccc2)c2ccccc2n(C)c1=O` [Example 260, N-[3,5-Bis(trifluoromethyl)benzyl]-1,2-dihydro-N,1-dimethyl-2-oxo-4-phenyl-3-quinolinecarboxamide], the half-maximal inhibitory concentration (IC50) stood at 1 nM.

Molecule `CCN(Cc1ccccc1OC)C(=O)c1c(-c2ccccc2C)c2ccccc2c(=O)n1C` [Example 107, N-Ethyl-1,2-dihydro-N-(2-methoxybenzyl)-2-methyl-4-(2-methylphenyl)-1-oxo-3-isoquinolinecarboxamide] registered a half-maximal inhibitory concentration (IC50) of 34 nM.

Turning to `CN(Cc1cc(C(F)(F)F)cc(C(F)(F)F)c1)C(=O)c1ncc2ccccc2c1-c1ccccc1` [Example 276, N-[3,5-Bis(trifluoromethyl)benzyl]-N-methyl-4-phenyl-3-isoquinolinecarboxamide], the half-maximal inhibitory concentration (IC50) turned out to be 3 nM.

`COc1ccccc1-c1c(C(=O)N(C)Cc2cc(C(F)(F)F)cc(C(F)(F)F)c2)c(=O)oc2ccc(Cl)cc12` [Example 251, N-[3,5-Bis(trifluoromethyl)benzyl]-6-chloro-4-(2-methoxyphenyl)-N-methyl-2-oxo-2H-1-benzopyran-3-carboxamide] came in with a 50% inhibitory concentration (IC50) of 60 nM.

The molecule `COc1ccccc1CN(C)C(=O)c1c(-c2ccccc2C)c2ccccc2c(=O)n1C` [Example 104, 1,2-Dihydro-N-(2-methoxybenzyl)-N,2-dimethyl-4-(2-methylphenyl)-1-oxo-3-isoquinolinecarboxamide] came in with an IC50 of 16 nM. This IC50 is about 3.8-fold lower than that of the molecule before.

`CN(Cc1cc(C(F)(F)F)cc(C(F)(F)F)c1)C(=O)c1c(-c2ccccc2C(F)(F)F)c2ccccc2oc1=O` [Example 256, N-[3,5-Bis(trifluoromethyl)benzyl]-N-methyl-2-oxo-4-(2trifluoromethylphenyl)-2H-1-benzopyran-3-carboxamide] returned an IC50 of 4.4 nM.

`CN(Cc1cc(C(F)(F)F)cc(C(F)(F)F)c1)C(=O)[C@H]1[C@@H](c2ccccc2)c2ccccc2C(=O)N1C` (relative stereo) [Example 279, 3,4-cis-N-[3,5-Bis(trifluoromethyl)benzyl]-1,2,3,4-tetrahydro-N-2-dimethyl-1-oxo-4-phenyl-3-isoquinolinecarboxamide]: the IC50 worked out at 34 nM.

As for `CN(Cc1cc(C(F)(F)F)cc(C(F)(F)F)c1)C(=O)c1[nH]c(=O)c2ccccc2c1-c1ccccc1` [Example 172, N-[3,5-Bis(trifluoromethyl)benzyl]-1,2-dihydro-N-methyl-1-oxo-4-phenyl-3-isoquinolinecarboxamide], the 50% inhibitory concentration (IC50) was found to be 0.5 nM.

The molecule `Cc1cc2c(-c3ccccc3)c(C(=O)NCc3cc(C(F)(F)F)cc(C(F)(F)F)c3)n(CC(N)=O)c(=O)c2cc1C` [Example 225, N-[3,5-Bis(trifluoromethyl)benzyl]-2-carbamoylmethyl-1,2-dihydro-6,7-dimethyl-1-oxo-4-phenyl-3-isoquinolinecarboxamide] registered a half-inhibitory concentration (IC50) of 94 nM.

The molecule `CN(Cc1cc(C(F)(F)F)cc(C(F)(F)F)c1)C(=O)c1c(-c2ccccc2)c2ccccc2c(=S)n1C` [Example 285, N-[3,5-Bis(trifluoromethyl)benzyl]-1,2-dihydro-N,2-dimethyl-4-phenyl-1-thioxo-3-isoquinolinecarboxamide] displayed a concentration for half-maximal inhibition (IC50) of 9.4 nM.

Turning to `Cc1nc2ccccc2c(-c2ccccc2)c1C(=O)NCc1cc(C(F)(F)F)cc(C(F)(F)F)c1` [Example 266, N-[3,5-Bis(trifluoromethyl)benzyl]-2-methyl-4-phenyl-3-quinolinecarboxamide], the half-inhibitory concentration (IC50) is 8.2 nM.

For the molecule `O=C(NCc1cc(C(F)(F)F)cc(C(F)(F)F)c1)c1oc(=O)c2ccccc2c1-c1ccc(F)cc1` [Example 245, N-[3,5-Bis(trifluoromethyl)benzyl]-4-(4-fluorophenyl)-1-oxo-1H-2-benzopyran-3-carboxamide], the IC50 came to 59 nM. Compared with the last molecule, the IC50 is about 7.2-fold higher.

In turn, `COc1nc2ccccc2c(-c2ccccc2)c1C(=O)N(C)Cc1cc(C(F)(F)F)cc(C(F)(F)F)c1` [Example 270, N-[3,5-Bis(trifluoromethyl)benzyl]-2-methoxy-N-methyl-4-phenyl-3-quinolinecarboxamide] showed a concentration for half-maximal inhibition (IC50) of 10 nM.

In the case of `CN(Cc1cc(C(F)(F)F)cc(C(F)(F)F)c1)C(=O)c1c(-c2ccccc2)c2cc(Cl)ccc2oc1=O` [Example 249, N-[3,5-Bis(trifluoromethyl)benzyl]-6-chloro-N-methyl-2-oxo-4-phenyl-2H-1-benzopyran-3-carboxamide], the half-maximal inhibitory concentration (IC50) came to 17 nM. Against the preceding molecule, the IC50 is about 1.7-fold higher.

`CNc1nc2ccccc2c(-c2ccccc2)c1C(=O)N(C)Cc1cc(C(F)(F)F)cc(C(F)(F)F)c1` [Example 271, N-[3,5-Bis(trifluoromethyl)benzyl]-N-methyl-2-methylamino-4-phenyl-3-quinolinecarboxamide] yielded a half-maximal inhibitory concentration (IC50) of 1.9 nM. Against the preceding molecule, the IC50 is about 8.9-fold lower.

`CN(Cc1cc(C(F)(F)F)cc(C(F)(F)F)c1)C(=O)[C@H]1[C@H](c2ccc(F)cc2)c2ccccc2C(=O)N1C` (relative stereo) [Example 280, 3,4-trans-N-[3,5-Bis(trifluoromethyl)benzyl]-4-(4-fluorophenyl)-1,2,3,4-tetrahydro-N,2-dimethyl-1-oxo-3-isoquinolinecarboxamide] had an IC50 of 58 nM.

The next test addresses T1, acyl-CoA:cholesterol acyl transferase (ACAT) (Rattus norvegicus, UniProt Q7TQM4).
T1 construct: small intestine mucosal microsome fraction of a 6-week-old male Sprague-Dawley rat; from tissue; host or cells: rat small intestine mucosa, microsome fraction
T1 sequence (Q7TQM4 1-524): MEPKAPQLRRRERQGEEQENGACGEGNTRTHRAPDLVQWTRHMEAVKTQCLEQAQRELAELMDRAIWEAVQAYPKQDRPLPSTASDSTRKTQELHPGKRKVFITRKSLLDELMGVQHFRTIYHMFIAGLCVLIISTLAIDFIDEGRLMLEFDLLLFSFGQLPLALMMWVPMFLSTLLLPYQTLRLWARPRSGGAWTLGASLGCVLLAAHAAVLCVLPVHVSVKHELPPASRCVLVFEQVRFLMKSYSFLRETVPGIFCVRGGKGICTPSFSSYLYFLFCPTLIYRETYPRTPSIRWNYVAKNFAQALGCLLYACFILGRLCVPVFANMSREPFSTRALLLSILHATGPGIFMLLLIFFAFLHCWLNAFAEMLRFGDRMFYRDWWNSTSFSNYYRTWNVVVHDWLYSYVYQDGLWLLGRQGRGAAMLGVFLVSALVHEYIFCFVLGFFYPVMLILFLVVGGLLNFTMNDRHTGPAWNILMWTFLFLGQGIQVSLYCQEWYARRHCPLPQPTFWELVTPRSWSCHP
As to the kind of experiment: Inhibitory action against acyl-CoA:cholesterol acyl transferase (ACAT), formation of labeled cholesterol ester, small intestine mucosal microsome fraction. Format: biochemical, male Sprague-Dawley rat. The settings on record: 10^-6 M; read-out: ACAT Inhibitory Rate (%). How it is done: An ACAT enzyme preparation was prepared from a small intestine mucosal microsome fraction of a 6-week-old male Sprague-Dawley rat, previously fasted for 20 hours, in accordance with the method described by Heider et al. in the Journal of Lipid Research, Vol. 24, page 1127 (1982).
ACAT activity was determined by measuring the amount of labeled cholesterol ester produced from [1-^14 C]-oleoyl-CoA and endogenous cholesterol, in accordance with the method of Helgerud et al. [Journal of Lipid Research, Vol. 22, page 271 (1981)].
For `Cc1ccc2c(c1)N(c1ccccc1)C(CC(=O)Nc1c(C(C)C)cccc1C(C)C)C(=O)N2C` (stereo not drawn) [Example 64, N-[2,6-Bis(1-methylethyl)phenyl]-1,2,3,4-tetrahydro-1,6-dimethyl-2-oxo-4-phenyl-3-quinoxalineacetamide], the inhibition at 1 µM is 99.5%.

Regarding `CC(C)c1cccc(C(C)C)c1NC(=O)Cc1cnc2ccc(Cl)cc2c1-c1ccccc1` [Example 57, N-[2,6-Bis(1-methylethyl)phenyl]-6-chloro-4-phenyl-3-quinolineacetamide], the inhibition at 1 µM came out at 99.3%.

For `Cc1ccc2oc(=O)c(CC(=O)Nc3c(C(C)C)cccc3C(C)C)c(-c3ccccc3)c2c1` [Example 53, N-[2,6-Bis(1-methylethyl)phenyl]-6-methyl-2-oxo-4-phenyl-2H-1-benzopyran-3-acetamide], the inhibition at 1 µM amounted to 99.7%.

For `Cc1ccccc1-c1c(CC(=O)Nc2ccc(F)cc2F)c(=O)oc2ccc(Cl)cc12` [Example 83, 6-Chloro-N-(2,4-difluorophenyl)-4-(2-methylphenyl)-2-oxo-2H-1-benzopyran-3-acetamide], the inhibition at 1 µM is 99.4%.

Regarding `Cc1cc2c(cc1C)N(C)C(=O)[C@@H](C(=O)Nc1ccc(F)cc1F)[C@@H]2c1ccccc1Cl` (relative stereo) [Example 10, 3,4-trans-4-(2-Chlorophenyl)-N-(2,4-difluorophenyl)-1,2,3,4-tetrahydro-1,6,7-trimethyl-2-oxo-3-quinolinecarboxamide], the inhibition at 1 µM was determined as 93.3%.

As to `CC(C)c1cccc(C(C)C)c1NC(=O)C[C@@H]1C(=O)N(C)c2ccc(Cl)cc2[C@H]1c1ccccc1Cl` (relative stereo) [Example 21, 3,4-trans-N-[2,6-Bis(1-methylethyl)phenyl]-6-chloro-4-(2-chlorophenyl)-1,2,3,4-tetrahydro-1-methyl-2-oxo-3-quinolineacetamide], the inhibition at 1 µM was 99.3%.

Turning to `CC(C)c1cccc(C(C)C)c1NC(=O)C[C@@H]1C(=O)N(C)c2ccc(Cl)cc2[C@H]1c1ccccc1` (relative stereo) [Example 33, 3,4-trans-N-[2,6-Bis(1-methylethyl)phenyl]-6-chloro-1,2,3,4-tetrahydro-1-methyl-2-oxo-4-phenyl-3-quinolineacetamide], the inhibition at 1 µM is 98.9%.

In the case of `CN1C(=O)[C@@H](CC(=O)Nc2ccc(F)cc2F)[C@H](c2ccccc2)c2cc(Cl)ccc21` (relative stereo) [Example 27, 3,4-trans-6-Chloro-N-(2,4-difluorophenyl)-1,2,3,4-tetrahydro-1-methyl-2-oxo-4-phenyl-3-quinolineacetamide], the inhibition at 1 µM amounted to 92%.

Turning to `Cc1cccc(NC(=O)[C@H]2[C@H](c3ccc(F)cc3)c3ccccc3C(=O)N2C)c1` (relative stereo) [Example 9, 3,4-trans-4-(4-Fluorophenyl)-1,2,3,4-tetrahydro-2-methyl-N-(3-methylphenyl)-1-oxo-3-isoquinolinecarboxamide], the inhibition at 1 µM amounted to 90.3%.
